Data from the supplement of paper PMC8671470.

Assays:
Details in all cases: 72 h
[1] = system: HL-60; experiment: cell viability (% survival relative to DMSO control); higher = less cytotoxic
Method in brief: (§1)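 HL-60 cells grown in RPMI 1640 with 10% FBS were rescreened against the full library in 384-well plates, in duplicate, at five tenfold concentrations from 1 to 10,000 nM, alongside DMSO or 100 nM of one of three metabolic inhibitors for 72 h at 37 °C, 5% CO2. Reference wells contained DMSO or 10 μM proteasome inhibitor. Viability was read with CellTiter-Glo and normalised to these reference wells, and where reported, area under the curve was taken from four-parameter log-logistic fits in drc and PharmacoGx.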

[2] = system: HL-60; experiment: area under dose-response curve (viability, 1 nM-10 uM) (fraction (0-1)); higher = more sensitive
Method in brief: as §1

[3] = system: myeloid leukemia patient primary cells Pat.10; experiment: cell viability (% survival relative to DMSO control); higher = less cytotoxic
Method in brief: (§2)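 Mononuclear cells from patients with AML or CML were thawed, purified on Ficoll and placed in RPMI 1640 with 10% FBS at 10,000 cells/well on 384-well plates. The plates came pre-printed with 70 compounds at five tenfold concentrations spanning 1–10,000 nM, in duplicate, and cells were exposed for 72 h. CellTiter-Glo gave viability, scaled between DMSO wells and wells with 10 μM proteasome inhibitor. Where reported, area under the curve was obtained from log-logistic fits with four parameters using the drc and PharmacoGx R packages.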

[4] = system: myeloid leukemia patient primary cells Pat.12; experiment: as above
Method in brief: as §2

[5] = system: myeloid leukemia patient primary cells Pat.5; experiment: as above
Method in brief: as §2

[6] = system: myeloid leukemia patient primary cells Pat.3; experiment: as above
Method in brief: as §2

[7] = system: myeloid leukemia patient primary cells Pat.6; experiment: as above
Method in brief: as §2

[8] = system: myeloid leukemia patient primary cells Pat.15; experiment: as above
Method in brief: as §2

[9] = system: myeloid leukemia patient primary cells Pat.13; experiment: as above
Method in brief: as §2

[10] = system: myeloid leukemia patient primary cells Pat.8; experiment: as above
Method in brief: as §2

[11] = system: myeloid leukemia patient primary cells Pat.1; experiment: as above
Method in brief: as §2

[12] = system: myeloid leukemia patient primary cells Pat.4; experiment: as above
Method in brief: as §2

[13] = system: myeloid leukemia patient primary cells Pat.2; experiment: as above
Method in brief: as §2

[14] = system: myeloid leukemia patient primary cells Pat.11; experiment: as above
Method in brief: as §2

[15] = system: myeloid leukemia patient primary cells Pat.14; experiment: as above
Method in brief: as §2

[16] = system: myeloid leukemia patient primary cells Pat.9; experiment: as above
Method in brief: as §2

[17] = system: myeloid leukemia patient primary cells Pat.7; experiment: as above
Method in brief: as §2

C=CCN(C)CCCCCCOc1ccc(C(=O)c2ccc(Br)cc2)c(F)c1.O=C(O)/C=C/C(=O)O [Ro 48-8071 fumarate]
cell viability [%], [1]
Details | 0.001 µM | 0.01 µM | 0.1 µM | 1 µM | 10 µM
co-treatment: AZD3965 100 nM | 99.39 | 92.3 | 103 | 94.9 | 44.1
co-treatment: DMSO vehicle | 99.1 | 86.3 | 107 | 102 | 75.5
co-treatment: GSK2194069 100 nM | 103 | 68.3 | 101 | 104 | 53
co-treatment: pictilisib 100 nM | 113 | 93.6 | 99.37 | 84.2 | 38.3

Details | area under dose-response curve, co-treatment: AZD3965 100 nM | area under dose-response curve, co-treatment: DMSO vehicle | area under dose-response curve, co-treatment: GSK2194069 100 nM | area under dose-response curve, co-treatment: pictilisib 100 nM | cell viability, 1 nM [%] | cell viability, 10 nM [%] | cell viability, 100 nM [%] | cell viability, 1000 nM [%] | cell viability, 10000 nM [%]
[2] | 0.0549 | < 0.0301 | 0.0331 | 0.112 | – | – | – | – | –
[3] | – | – | – | – | 80.8 | 61.7 | 63.7 | 73.8 | < 0
[4] | – | – | – | – | 96.5 | 91.5 | 93.7 | 82.9 | 77.6
[5] | – | – | – | – | > 100 | 61.6 | 73.3 | 73.5 | 0.265
[6] | – | – | – | – | 55 | 59.7 | 28.2 | 21.8 | 6.91
[7] | – | – | – | – | 99.9 | > 100 | 87.1 | 92.9 | 37.7
[8] | – | – | – | – | 84 | 94.1 | 99.4 | 94.3 | 56.6
[9] | – | – | – | – | 92.9 | 98.7 | 82.6 | 85.6 | 51.7
[10] | – | – | – | – | 78.8 | 96.9 | 94.9 | 92.1 | 75.8
[11] | – | – | – | – | 97.8 | 94.5 | 97.4 | 82.7 | 37.2
[12] | – | – | – | – | 86.4 | 92 | 88.3 | 88.5 | 56.3
[13] | – | – | – | – | 98.4 | 99.7 | 97.6 | 97.1 | 71.1
[14] | – | – | – | – | 98.4 | 100 | 97.9 | 96.5 | 72.2
[15] | – | – | – | – | 93.2 | 99.3 | 91.9 | 99.6 | 21
[16] | – | – | – | – | 90.4 | 69.8 | 87.2 | 84.8 | < 0
[17] | – | – | – | – | > 100 | > 100 | 85.7 | 61.7 | < 0

c1cc(-c2cnn3cc(-c4ccc(OCCN5CCCCC5)cc4)cnc23)ccn1 [Dorsomorphin]
cell viability [%], [1]
Details | 0.001 µM | 0.01 µM | 0.1 µM | 1 µM | 10 µM
co-treatment: AZD3965 100 nM | 101 | 101 | 99.7 | 99.9 | 56.2
co-treatment: DMSO vehicle | 99.8 | 102 | 99.9 | 95.21 | 63.4
co-treatment: GSK2194069 100 nM | 108 | 102 | 104 | 105 | 63.4
co-treatment: pictilisib 100 nM | 93.5 | 99.7 | 94.8 | 82.3 | 34

Details | area under dose-response curve, co-treatment: AZD3965 100 nM | area under dose-response curve, co-treatment: DMSO vehicle | area under dose-response curve, co-treatment: GSK2194069 100 nM | area under dose-response curve, co-treatment: pictilisib 100 nM | cell viability, 1 nM [%] | cell viability, 10 nM [%] | cell viability, 100 nM [%] | cell viability, 1000 nM [%] | cell viability, 10000 nM [%]
[2] | 0.0329 | 0.0501 | < 0.0301 | 0.112 | – | – | – | – | –
[3] | – | – | – | – | 17.6 | 76.4 | 61.4 | 27.6 | 38.4
[4] | – | – | – | – | 98.5 | 97.1 | 98.5 | 92 | 91.6
[5] | – | – | – | – | 3.45 | 81.3 | 5.46 | 1.33 | 10.2
[6] | – | – | – | – | 64.7 | 99.1 | 67.9 | 86.3 | 34.1
[7] | – | – | – | – | 84.6 | > 100 | 73.2 | 83.4 | 72.5
[8] | – | – | – | – | 88.3 | 90.6 | 95.6 | 92.5 | 24.9
[9] | – | – | – | – | 88.2 | 94.5 | 64.7 | 50.7 | 48.6
[10] | – | – | – | – | 77.5 | 99 | 92.6 | 81.6 | 68.6
[11] | – | – | – | – | 76.7 | 93.2 | 78.1 | 65.8 | 27.8
[12] | – | – | – | – | 86.7 | 91.5 | 90.1 | 56.8 | 35.9
[13] | – | – | – | – | 95.8 | 99.8 | 92.5 | > 100 | 59.4
[14] | – | – | – | – | 95.2 | > 100 | 90.4 | 79.8 | 43.8
[15] | – | – | – | – | 48.1 | 100 | 53 | 84.5 | 60.8
[16] | – | – | – | – | 41.6 | > 100 | 11.5 | 41.3 | 18.7
[17] | – | – | – | – | 25.4 | 95.4 | 65 | 89.5 | 30.9
